Test results as given in the supplement of paper PMC11451515.

Test system: P12-Ichikawa
Experiment: cell viability relative to DMSO control; higher = less cytotoxic
Conditions: 48 h
How it was run: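 NOMO1 or SEM cells were plated at 500 cells/well and P12-Ichikawa cells at 1000 cells/well in 1536-well plates (5 μl), after each leukemia line had been adapted for at least four passages in each medium. Pin dosing delivered library compounds in DMSO at 11 threefold concentrations, 47 μM to 0.79 nM. CellTiter-Glo One luminescence was read after 48 h at 37°C. Viability is reported as a per-plate percentage of DMSO wells, with cell-free wells as background.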

[1] = HPLM + 10% dialyzed FBS, 0.000781 µM
[2] = HPLM + 10% dialyzed FBS, 0.00234 µM
[3] = HPLM + 10% dialyzed FBS, 0.00702 µM
[4] = HPLM + 10% dialyzed FBS, 0.0211 µM
[5] = HPLM + 10% dialyzed FBS, 0.0632 µM
[6] = HPLM + 10% dialyzed FBS, 0.19 µM
[7] = HPLM + 10% dialyzed FBS, 0.569 µM
[8] = HPLM + 10% dialyzed FBS, 1.71 µM
[9] = HPLM + 10% dialyzed FBS, 5.12 µM
[10] = HPLM + 10% dialyzed FBS, 15.4 µM
[11] = HPLM + 10% dialyzed FBS, 46.1 µM
[12] = RPMI 5 mM glucose + 10% FBS, 0.000781 µM
[13] = RPMI 5 mM glucose + 10% FBS, 0.00234 µM
[14] = RPMI 5 mM glucose + 10% FBS, 0.00702 µM
[15] = RPMI 5 mM glucose + 10% FBS, 0.0211 µM
[16] = RPMI 5 mM glucose + 10% FBS, 0.0632 µM
[17] = RPMI 5 mM glucose + 10% FBS, 0.19 µM
[18] = RPMI 5 mM glucose + 10% FBS, 0.569 µM
[19] = RPMI 5 mM glucose + 10% FBS, 1.71 µM
[20] = RPMI 5 mM glucose + 10% FBS, 5.12 µM
[21] = RPMI 5 mM glucose + 10% FBS, 15.4 µM
[22] = RPMI 5 mM glucose + 10% FBS, 46.1 µM
[23] = RPMI 5 mM glucose + 10% dialyzed FBS, 0.000781 µM
[24] = RPMI 5 mM glucose + 10% dialyzed FBS, 0.00234 µM
[25] = RPMI 5 mM glucose + 10% dialyzed FBS, 0.00702 µM
[26] = RPMI 5 mM glucose + 10% dialyzed FBS, 0.0211 µM
[27] = RPMI 5 mM glucose + 10% dialyzed FBS, 0.0632 µM
[28] = RPMI 5 mM glucose + 10% dialyzed FBS, 0.19 µM
[29] = RPMI 5 mM glucose + 10% dialyzed FBS, 0.569 µM
[30] = RPMI 5 mM glucose + 10% dialyzed FBS, 1.71 µM
[31] = RPMI 5 mM glucose + 10% dialyzed FBS, 5.12 µM
[32] = RPMI 5 mM glucose + 10% dialyzed FBS, 15.4 µM
[33] = RPMI 5 mM glucose + 10% dialyzed FBS, 46.1 µM

SMILES	cell viability [1] [%]	cell viability [2] [%]	cell viability [3] [%]	cell viability [4] [%]	cell viability [5] [%]	cell viability [6] [%]	cell viability [7] [%]	cell viability [8] [%]	cell viability [9] [%]	cell viability [10] [%]	cell viability [11] [%]	cell viability [12] [%]	cell viability [13] [%]	cell viability [14] [%]	cell viability [15] [%]	cell viability [16] [%]	cell viability [17] [%]	cell viability [18] [%]	cell viability [19] [%]	cell viability [20] [%]	cell viability [21] [%]	cell viability [22] [%]	cell viability [23] [%]	cell viability [24] [%]	cell viability [25] [%]	cell viability [26] [%]	cell viability [27] [%]	cell viability [28] [%]	cell viability [29] [%]	cell viability [30] [%]	cell viability [31] [%]	cell viability [32] [%]	cell viability [33] [%]
CC\1=C(C(=O)N(\C=C1)C2=CC=C(C=C2)C3=NC=CO3)/C4=CC5=CN=C(N)N=C5C=C4	105	114	111	108	115	111	109	117	105	110	91.3	106	112	108	102	112	105	109	102	106	98.6	80.2	102	103	111	112	117	109	111	110	94.2	105	79.6
CC1=CC=CC=C1CN2C(=O)C/3=C(/CCN(CC4=CC=CC=C4)C3)N\5CC\N=C25	124	120	119	119	119	112	107	106	81.9	53.4	57.5	129	109	117	119	127	114	118	122	79.8	45.7	45.2	–	–	–	–	–	–	–	–	–	–	–
O=C(/C=C/c1c(C(=O)[O-])[nH]c2cc(Cl)cc(Cl)c12)Nc1ccccc1	106	111	105	103	116	114	115	116	113	111	109	98	105	107	106	108	110	112	120	104	107	106	103	99.5	107	110	107	108	103	107	66.2	108	113
OCc1ccc(-c2nn(Cc3ccccc3)c3ccccc23)o1	118	109	103	107	113	108	104	93.8	96.5	105	73.7	117	119	128	126	113	115	117	104	116	113	60.9	109	110	108	112	100	108	113	103	102	98.9	49.5
C[C@@H]1COCCN1C\2=C\C(=O)N\3CC[C@H](N(CC4=CN=CC(=C4)Cl)C3=N2)C(F)(F)F	94	101	98.9	94.3	97.5	103	101	104	85	32.7	22.5	91.4	94.1	95.7	89.2	98.3	107	97.2	108	76.5	40	17.5	99.4	102	106	98.8	107	99.6	114	99.8	86	30.8	17.6
Cc1cccc(-c2nn(C(=S)Nc3ccccc3)cc2-c2ccnc3ccccc23)n1	115	122	120	117	117	109	113	101	109	86.3	78.3	115	123	113	124	109	117	111	100	108	91.4	74.3	121	109	122	114	118	110	119	108	98.9	49	73.1
CC(C)(C)C(=O)Oc1ccc([S+](=O)([O-])Nc2ccccc2C(=O)NCC(=O)O)cc1	113	114	113	111	117	122	116	115	111	123	133	107	106	111	106	115	123	113	119	126	131	134	112	115	106	118	113	117	120	121	122	132	138
CC(C)n1nc(-c2ccc3oc(N)nc3c2)c2c(N)ncnc21	95.5	91	86.3	79.7	78	75	68.7	67.2	66.7	59.9	44.5	74.4	71.5	64.1	61.5	52	54.4	51	46.8	41.4	37.2	31.3	82.5	78.9	67.1	59.1	61.7	53.8	45	47.3	41.5	35.6	32
c1cc(CN2CCCNCCNCCCNCC2)ccc1CN1CCCNCCNCCCNCC1	84	90.4	96.5	10.2	101	104	109	102	102	116	117	80.6	90.8	95.2	12.9	101	97.6	101	103	99	111	106	86.3	93.9	92.9	24.9	94.9	99.6	101	101	103	96.5	103
[NH2][Pt]([NH2])([Cl])[Cl]	99.2	105	95.1	90.3	102	96	97.6	98.2	101	98.2	105	86.2	92.8	95.6	98	101	101	90.7	94.3	89	90.8	95.5	88.4	94.6	85.2	92	91.1	95.6	92.2	87.6	98.8	88.4	85.2
O=C(NC[C@H](O)CN1CCc2ccccc2C1)c1cc(NC2COC2)ncn1	84.8	87.8	87.5	86.8	85.4	86.1	83.6	78.9	80	80.6	71.1	74	83.2	80	85.9	86.2	84.8	77.3	74	70.4	76.4	59.3	80.6	88.6	84.6	87.9	88.1	86.9	77.6	79.1	78.7	72	66.3
CCC(=O)OCC(=O)[C@@]1(OC(=O)CC)[C@@H](C)C[C@H]2[C@@H]3CCC4=CC(=O)C=C[C@]4(C)[C@@]3(F)[C@@H](O)C[C@@]21C	107	110	111	107	111	96.4	80.1	65.9	64.3	12.3	6.01	106	111	121	108	102	89.9	73.4	68.6	56	6.2	6.14	101	111	107	94.8	90.3	76.2	67.6	54.6	52.2	5.68	4.77
CC1(C)CCC(=C(CN2CCN(CC2)C3=CC=C(C=C3)C(=O)N[S+]([O-])(=O)C4=CC(=C(N[C@H](CCN5CCOCC5)CSC6=CC=CC=C6)C=C4)[S+]([O-])(=O)C(F)(F)F)\C1)/C7=CC=C(Cl)C=C7	116	120	121	122	92.5	40.9	20	6.68	7.29	7.3	4.74	–	–	–	–	–	–	–	–	–	–	–	120	124	127	122	109	73.4	39.1	7.42	7.07	6.25	4.69
C[S+](=O)([O-])N(Cc1ccco1)CC(O)Cn1c2ccccc2c2ccccc21 (stereo not given)	94.2	88.9	94.2	99.9	96.3	98.8	94.8	89.8	89.3	85.8	56.6	92	94	92	89.2	97.7	99.2	91.9	83.6	76.4	79.2	42.1	86	90.7	97	97.1	94.4	87.1	81.3	88.8	85.7	73.4	41.7
